Measurements published in PMC12631721, “Preclinical Screening Platform Identifies Azatadine‐Dimaleate as a Potent Repurposed Therapeutic Against SARS‐CoV‐2 Infection” (Journal of Medical Virology, 2025).
“And” between values parts separate entries of the source, which are not always exact repeats. Equal values may be shown once. “Also recorded” adds a separate entry of the source. Read-outs that look alike come from different tables or passages of the source.

Columns and labels:
[1] = tested on: SARS‐CoV‐2; experiment: CPE-based high-throughput screen (CellTox Green) in Vero cells; type: cell-based
[2] = tested on: SARS‐CoV‐2; experiment: CPE-based high-throughput screen (CellTox Green) in Calu‐3 cells; type: cell-based
[3] = tested on: SARS‐CoV‐2; type: cell-based; conditions: Calu‐3 pretreated 24 h before infection, MOI = 0.1, plaque assay
[4] = tested on: SARS‐CoV‐2; experiment: microbe, parasite or virus in culture; type: cell-based
[5] = tested on: Calu‐3 cells; experiment: Cell viability / cytotoxicity in uninfected Calu‐3 cells; conditions: 72 h, Azatadine‐Dimaleate 25 µM, Remdesivir 1 µM, or combination (1 µM + 25 µM)
[6] = tested on: SARS‐CoV‐2 LIV strain; type: in vivo, K18‐hACE2 mice; conditions: for Mean weight loss: Azatadine‐Dimaleate 10 mg/kg i.p. daily, remdesivir (as GS‐441524) 25 mg/kg daily, vehicle 12%; for Histopathology score: single animal shown in Fig. S5, 4 dpi, vehicle treated animal score 4
[7] = tested on: SARS‐CoV‐2; type: cell-based; conditions: WD‐PBECs; for Reduction in viral titers compared to DMSO (significance): Remdesivir 1 µM, Azatadine‐Dimaleate 25 µM, or combination 0.4 µM + 10 µM, 48, 72, 96 hpi
[8] = tested on: IFNL1, IFNB, IFIT1, ISG15, IL6, CXCL8/IL8; experiment: Innate immune response gene expression by RT‐qPCR in infected WD‐PBECs; type: cell-based, human; conditions: 96 hpi, treatment from 24 hpi
Protocol: Figure 5 Azatadine‐Dimaleate modulates innate immune responses in WD‐PBEC cultures. RNA samples were harvested at 96 hpi from each condition in duplicate from WD‐PBECs and a panel of selected innate immune genes (IFNL1, IFNB, IFIT1, ISG15, IL‐6, CXCL8/IL8), were quantified using RT‐qPCR assay. The relative ratios for each gene were calculated in reference to a house keeping gene GAPDH using light cycler 96 software 1.1. The data value plotted for each donor in each condition is an average of 2 biological duplicate Transwells and four technical replicates. Where possible, statistical significance was determined using unpaired Student t‐test between DMSO control and individual treatments (*p ≤ 0.05, **p ≤ 0.01).
For RNA extraction, cultures were incubated with 400 µL of Lysis/Binding buffer (High Pure Isolation Kit; Roche) for 5 min at room temperature. […] RNA was quantified by spectrophotometry and 1 µg was transcribed into cDNA using The High‐Capacity cDNA Reverse Transcription Kit (Applied Biosystems, Thermo Fisher Scientific) in 0.2 mL PCR reaction tubes (Eppendorf). […]
(§1) When performing qPCR the Roche probe mixes for the detection of TBP (Cat. No. 05189284001) and GAPDH (Assay ID: Hs02786624_g1, Cat. No:4331182) were used as references. The LightCycler® 480 Probes Master mix was used following the manufacturer's protocol to quantify the mRNA expression levels for all genes of interest. […]

[9] = tested on: SARS‐CoV‐2; experiment: microbe, parasite or virus in culture; type: cell-based; conditions: for Improvement in potency in combination vs alone: Calu‐3, ratio of EC50 alone to EC50 in combination; for EC50: Severe acute respiratory syndrome coronavirus 2, Calu‐3, pretreated 24 h, PHE MOI = 0.1, 72 hpi, viral titres by plaque assay, read-out: EC50, drug alone
[10] = tested on: SARS‐CoV‐2; experiment: Viral NSP12 RNA by RT‐qPCR in Calu‐3 cells; type: cell-based; conditions: Calu‐3, RT‐qPCR
Protocol: (A) Cell viability assessment in uninfected Calu‐3 cells treated with DMSO control, Azatadine‐Dimaleate (25 µM), Remdesivir (1 µM), or the combination (Remdesivir 1 µM + Azatadine 25 µM) for 72 h. […] (B) Release of infectious virus was quantified by plaque assay. Calu‐3 cells were pretreated with Azatadine‐Dimaleate (5 & 25 µM) or Remdesivir (1 µM) 24 h before infection with SARS‐CoV‐2 PHE (MOI = 0.1). (C) Levels of viral NSP12 RNA was measured by RT‐qPCR following treatment with Azatadine‐Dimaleate at (5 & 25 µM) or Remdesivir (1 µM) 24 h before infection with SARS‐CoV‐2 (PHE MOI = 0.1). Data bars represent mean ± SEM of n = 3 independent experiments. Statistical analysis by one‐way ANOVA, ***p ≤ 0.001 vs DMSO control. […] DMSO alone was used as a negative control. At 72 hpi viral titres were determined by plaque assay. Data points represent an average of 3 separate repeat experiments ±SEM.
For RNA extraction, cultures were incubated with 400 µL of Lysis/Binding buffer (High Pure Isolation Kit; Roche) for 5 min at room temperature. […] RNA was quantified by spectrophotometry and 1 µg was transcribed into cDNA using The High‐Capacity cDNA Reverse Transcription Kit (Applied Biosystems, Thermo Fisher Scientific) in 0.2 mL PCR reaction tubes (Eppendorf). […] Ready‐made catalogue assays for a set of primers and probes (FAM labelled) (Thermofisher) specific for human genes involved in the innate immune response to SARS‐COV‐2 such as: IFNL1 (Assay ID: Hs00601677 g1, Cat. No:433118) IFNB (Assay ID:Hs01077958_s1, Cat. No. 4331182), ISG15 (Assay ID: Hs01921425 s1, catalogue no:4331182), IFIT1 (Hs03027069_s1, Cat no. 4331182), IL6 (Hs00174131_m1, Cat no. 4331182) and CXCL8/IL8 (Bt03211906_m1, Cat no. 4331182) were selected for analyses.
as §1

[11] = tested on: SARS‐CoV‐2; parameters: method as in PMID 37100830; conditions: clinical trial by Klussmann and colleagues; cited from earlier work
[12] = tested on: SARS‐CoV‐2; parameters: method as in PMID 32366720; conditions: Vero cells; cited from earlier work
[13] = Vero cells, 5 µM, drug 24 h before infection, MOI = 0.1, 72 hpi
[14] = Calu‐3 cells, 5 µM, drug 24 h before infection, MOI = 0.1, 72 hpi
[15] = Severe acute respiratory syndrome coronavirus 2, Vero cells, 5 µM, drug 24 h before infection, MOI = 0.1, 72 hpi
[16] = Severe acute respiratory syndrome coronavirus 2, Calu‐3 cells, PHE MOI = 0.1, 72 hpi, 7 serial 1 in 2 dilutions from 20 µM, read-out: EC50 (CPE inhibition)
[17] = Severe acute respiratory syndrome coronavirus 2, Calu‐3 cells, 5 µM, drug 24 h before infection, MOI = 0.1, 72 hpi

CS(=O)(=O)O.CS(=O)(=O)O.Cc1cccc(/C=N/Nc2cc(N3CCOCC3)nc(OCCc3ccccn3)n2)c1 [Apilimod (mesylate)]
% of CPE inhibition [1, 13]: 100%
% of CPE inhibition [2, 14]: negligible antiviral activity

CN1CCC(=C2c3ccccc3CCc3cccnc32)CC1 [Azatadine‐Dimaleate]
Reduction in viral titres ([3]; 5 µM): approximately 100 fold
Reduction in viral titres ([3]; 25 µM): ~ 5,000 fold and > 5,000 fold
inhibition at 5 µM [1, 15]: 88.5%
EC50 [4, 16]: 4 µM
Cytotoxicity (cell viability) [5]: no discernible toxicity; also recorded: No cytotoxic effects
Reduction of viral antigen expression in lung (immuno‐stained area) ([6]; day 4 post infection, morphometric analysis of SARS‐CoV‐2 N antigen): approximately 50%
Mean weight loss ([6]; day 4 post infection): 4%
Infectious virus in lung by plaque assay vs vehicle ([6]; mouse, in vivo): statistical significance reached
Reduction of viral antigen expression in lung (immuno‐stained area) ([6]; mouse, in vivo): halved
Histopathology score [6]: 2
Lowering of peak viral titers compared to controls ([7]; 48 hpi): 1.4 log10
Lowering of peak viral titers compared to controls ([7]; 96 hpi): 2.33 log10
Reduction in viral titers compared to DMSO (significance) [7]: significantly reduced viral titers at 72 and 96 hpi
Expression of innate immune response genes (IFNL1, IFNB, IFIT1, ISG15, IL6, CXCL8/IL8) [8]: significant reductions in all except CXCL8/IL8
Improvement in potency in combination vs alone [9]: twofold
EC50 [9]: 4 µM
Reduction of viral NSP12 RNA levels relative to untreated controls ([10]; 5 µM): approximately 50%
Suppression of viral NSP12 RNA levels ([10]; 25 µM): > 95%
inhibition at 5 µM [2, 17]: 97.6%

CN1CCCC(n2nc(Cc3ccc(Cl)cc3)c3ccccc3c2=O)CC1 (centres unmarked) [Azelastine]
Viral load after nasal administration [11]: significant viral load reduction

CCN(CC)CCCC(C)Nc1ccnc2cc(Cl)ccc12 (centres unmarked) [Chloroquine]
inhibition at 5 µM [1, 15]: 100%
% of CPE inhibition [2, 14]: negligible antiviral activity

N#C[C@@]1(c2ccc3c(N)ncnn23)O[C@H](CO)[C@@H](O)[C@H]1O [GS‐441524]
inhibition at 5 µM ([1]; Severe acute respiratory syndrome coronavirus 2, Vero): 80 to 90%
EC50 ([4]; Severe acute respiratory syndrome coronavirus 2, Calu-3, read-out: EC50 (CPE inhibition)): 0.85 µM
inhibition at 5 µM ([2]; Severe acute respiratory syndrome coronavirus 2, Calu-3): 80 to 90%

CC(C)(C)[C@@H]1NC(=O)O[C@@H]2CCC[C@H]2OC/C=C/C(F)(F)c2nc3ccccc3nc2O[C@@H]2C[C@@H](C(=O)N[C@]3(C(=O)NS(=O)(=O)C4(C)CC4)C[C@H]3C(F)F)N(C2)C1=O [Glecaprevir]
inhibition at 5 µM [1, 15]: 80 to 90%
inhibition at 5 µM [2, 17]: 80 to 90%

CCOC(=O)N1CCC(=C2c3ccc(Cl)cc3CCc3cccnc32)CC1 [Loratadine]
% of CPE inhibition [1, 13]: negligible activity
% of CPE inhibition [2, 14]: negligible activity

c1ccc2c(c1)Sc1ccccc1N2CC1CN2CCC1CC2 (centres unmarked) [Mequitazine]
IC50 [12]: 7.28 µM
% of CPE inhibition [1, 13]: modest efficacy in Vero cells only

CCC(CC)COC(=O)[C@H](C)N[P@](=O)(OC[C@H]1O[C@@](C#N)(c2ccc3c(N)ncnn23)[C@H](O)[C@@H]1O)Oc1ccccc1 [Remdesivir]
Inhibitory activity on viral titres ([3]; 1 µM): comparable inhibitory activity to 25 µM Azatadine‐Dimaleate
EC50 [4, 16]: 0.6 µM
Cytotoxicity (cell viability) [5]: No cytotoxic effects
Mean weight loss ([6]; […]): failed to prevent significant weight loss
Pulmonary viral RNA load (qRT‐PCR) vs vehicle ([6]; mouse, in vivo): reduction achieved statistical significance
Histopathology score [6]: 3
Reduction in viral titers compared to DMSO (significance) [7]: greatest reduction in viral titers
Improvement in potency in combination vs alone [9]: 2.4 fold
EC50 [9]: 0.6 µM
Suppression of viral NSP12 RNA levels ([10]; 1 µM): > 95%

CC(C)n1nc(-c2ccc3oc(N)nc3c2)c2c(N)ncnc21 [Sapanisertib]
inhibition at 5 µM [1, 15]: 80 to 90%
inhibition at 5 µM [2, 17]: 80 to 90%

CCN(CCO)CCCC(C)Nc1ccnc2cc(Cl)ccc12 (centres unmarked) [hydroxychloroquine]
inhibition at 5 µM [1, 15]: 100%
% of CPE inhibition [2, 14]: negligible antiviral activity
